pEC50, pIC50: −log10 of the molar value. Several values for one entry are separate records, joined by “and”; a condition that tells them apart may be missing. Equal entries are not always repeated. Activity calls are given as the source filed them.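 How the source made its calls: active means compounds giving half or more protection of infected cells from virus-caused growth loss, again on retest; inactive means the rest.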 Where a SMILES comes first, the peptide text is derived from it.
Test system: CEM cells HIV-1 protection, formazan growth assay
Assay: NCI AIDS Antiviral Assay
Details: for pIC50: measured here: growth of uninfected CEM cells
Summary of the method: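 Human CEM cells, uninfected and HIV-1-infected, exposed to five drug concentrations; growth measured by soluble formazan assay and scored as percent protection from infection, with protecting compounds retested.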

| SMILES | pEC50 | pIC50 | outcome |
| --- | --- | --- | --- |
| O=C(c1cccs1)N(C(=S)N1CCN(c2ccccc2)CC1)c1ccccc1 | < 4.89 | < 4.89 | – |
| CC(C)=CC1CCc2ccccc2N1S(=O)(=O)c1ccc(C)cc1 (stereo unspecified) | < 4.60 | 5.88 | – |
| CC(=O)c1ccc2c(c1)N(CCCN(C)C)c1ccccc1S2 | < 3.70 | 4.46 | – |
| O=c1onc2n1-c1ccc(Cl)cc1C(=S)N1CSCC21 (stereo unspecified) | < 3.70 | 4.49 | – |
| CCCn1c(=O)c2ccccc2[n+]2c(-c3ccc([N+](=O)[O-])cc3)csc12 | < 3.70 | < 4.00 | – |
| COC(=O)[C@H](Cc1ccccc1)NC(=O)N(CCC#N)CCN(C(=O)N[C@@H](Cc1ccccc1)C(=O)OC)c1ccccc1 | < 3.70 | 4.53 | – |
| CCOC(=O)C(CCC1=NC(C)(C)CC(C)O1)C(=O)OCC (stereo unspecified) | < 3.70 | < 3.70 | – |
| CCc1cccc(CC)c1Nc1nc(-c2ccccc2-c2ccccc2)cs1 | < 3.70 | < 3.70 | – |
| COC1/C=C/OC2(C)Oc3c(C)c(O)c4c(O)c(c(C=NNC(=O)c5ccc(N)cc5)c(O)c4c3C2=O)NC(=O)/C(C)=C/C=C/C(C)C(O)C(C)C(O)C(C)C(OC(C)=O)C1C (stereo unspecified) | < 3.86 | 3.97 | – |
| COc1ccc(CSC2=C(C#N)C(=O)NC3(CCCCC3)S2)cc1 | < 3.70 | 3.96 | – |
| CSc1c(C#N)c(=O)n(N)c2c1c(C)nn2-c1ccccc1 | < 3.70 | 4.57 | – |
| O=C(Nc1ccc(C2=NC3CCCCC3N2)cc1)c1ccc(C(=O)Nc2ccc(C3=NC4CCCCC4N3)cc2)cc1 (stereo unspecified) | < 3.70 | 5.03 | – |
| CC(=O)Nc1ccc(Nc2cc(=O)[nH]c(=O)[nH]2)cc1 | < 3.70 | < 3.70 | – |
| COC(=O)/C=C(/C)n1nc2ccccc2n1 | < 3.70 | < 3.70 | – |
| COC(=O)CCC(=O)c1ccc2c(c1)CC1(Cc3ccccc3C1)C2 | < 3.70 | 4.33 | – |
| COc1ccc2c(c1OC)OCC(CN(C)C)C2=O (stereo unspecified) | – | – | inactive |
| CC(=O)OCCn1c(Cc2ccc([N+](=O)[O-])cc2)nn(C(C)=O)c1=O | < 3.70 | < 3.70 | – |
| Cc1cccc(C(O)c2ccccn2)c1O (stereo unspecified) | < 3.70 | < 3.70 | – |
| Oc1c(N2CCOCC2)cc(-c2cc(N3CCOCC3)c(O)c3ccccc23)c2ccccc12 | < 4.58 | 5.44 | – |
| O=C(Nc1ccc(Cl)cc1)C1C(=O)C(=O)N(c2ccc(Cl)cc2)C1=O (stereo unspecified) | – | – | inactive |
| COc1ccc2cc(C(C)C(O)c3cc(F)c(F)c(F)c3F)ccc2c1 (stereo unspecified) | 3.90 | < 3.70 | – |
| COc1ccc([C@@H]2CC(=O)NCCCNCCCCNCCCN2)cc1 | < 3.70 | 3.91 | – |

| SMILES | pEC50 | pIC50 | outcome |
| --- | --- | --- | --- |
| CCc1ccccc1NC(=O)C(=O)C(C(=O)c1ccc(OC)cc1)c1ccc(OC)cc1 (stereo unspecified) | – | – | inactive |
| CCN(CC)/C(SCc1ccccc1)=C(\C(Cl)=C(Cl)Cl)[N+](=O)[O-] | < 3.70 | 4.46 | – |
| CN1C(=O)CNS1(=O)=O | – | – | inactive |
| CN(O)C(=O)c1cccc(Cl)c1 | < 3.70 | 3.95 | – |
| CN(Cc1ccccc1)C(=NC#N)N(Cc1ccccc1)Cc1ccccc1 | < 4.71 | < 4.71 | – |
| CCOC(=O)C(c1c(O)c2ccccc2oc1=O)c1c(O)c2ccccc2oc1=O | < 3.21 | 4.19 | – |
| Cc1ccc(-n2c(Cn3nnc(-c4cccnc4)n3)nn(C3OC(COC(=O)c4ccccc4)C(OC(=O)c4ccccc4)C3OC(=O)c3ccccc3)c2=S)cc1C (stereo unspecified) | < 4.00 | < 4.00 | – |
| OCCN(/N=C\c1ccc2ccccc2c1)C1=NCCN1 | < 3.70 | 4.50 | – |
| CC1(C)CC(=O)C(/C=N/c2nc(-c3cccc([N+](=O)[O-])c3)cs2)=C(O)C1 | < 3.70 | 5.08 | – |
| OC1CN2CCS[C@H]2C(O)C1O (stereo partly specified) | < 3.70 | < 3.70 | – |
| Cc1cc(=O)c2c(o1)C(=O)c1occc1C2=O | – | – | inactive |
| CC(C)=CCc1c(O)cc(O)c2c1OC(c1ccc(O)cc1)C(O)C2=O (stereo unspecified) | < 3.44 | 4.75 | – |
| CCOC(CN(C)C(=O)Nc1cccc2ccccc12)OCC | < 3.70 | 3.75 | – |
| CCCCOC(=O)CSSCC(=O)OCCCC | < 3.70 | 4.29 | – |
| CCOC(=O)C1(C#N)C(=O)c2cc[n+](CC[n+]3ccc4c(c3)C(=O)C(C#N)(C(=O)OCC)C4=O)cc2C1=O (stereo unspecified) | < 3.70 | 3.97 | – |
| NC(=S)Nc1[nH]c(=S)nc2[nH]ccc12 | < 4.04 | 4.08 | – |
| CN1C(=O)/C(=N\n2c(-c3ccccc3)nc3ccccc3c2=O)c2ccccc21 | < 3.70 | < 3.70 | – |
| Cc1cn(C2CC(SCCO)C(CO)O2)c(=O)[nH]c1=O (stereo unspecified) | < 3.70 | < 3.70 | – |
| O=[N+]([O-])/C=C/c1cn(CCCCCn2cc(/C=C/[N+](=O)[O-])c3ccccc32)c2ccccc12 | < 3.70 | 5.58 | – |
| O=C(CC1C(=O)Nc2ccccc2S1=O)Nc1ccc(Cl)cc1 (stereo unspecified) | – | – | inactive |
| CNC1=C(C)C(=O)C(=O)C([C@H](C)CCC=C(C)C)=C1O | < 3.70 | 5.21 | – |
| COC(=O)c1ccccc1C1CN=NC12Cc1ccc(C)cc1C2=O (stereo unspecified) | < 3.70 | 4.20 | – |

| SMILES | pEC50 | pIC50 | outcome |
| --- | --- | --- | --- |
| C1=C2/CC[C@H](Sc3ccccc3)[C@H]2C2(CCCCC/1)OCCO2 | < 4.80 | < 4.80 | – |
| CC(/C(=N/NC(=O)C(N)=O)c1c(Cl)ccc(Cl)c1O)C1(O)C(=O)Nc2ccccc21 (stereo unspecified) | < 4.94 | < 4.94 | – |
| COc1ccccc1NC(=S)/N=C/c1c(O)cc(C)oc1=O | < 3.70 | < 3.70 | – |
| CC(C)(C)OC(=O)N1CC(C)(C)N2C(=O)C3(CCCO3)C12 (stereo unspecified) | 4.47 | 3.46 | – |
| CC(C)OC(=O)c1ccc(NCC2=CC(=O)C=CC2=O)cc1 | < 3.70 | 5.11 | – |
| C1CCCCC2(CCCCCCCCC3(CCC1)OCCO3)OCCO2 | < 3.70 | < 3.70 | – |
| CCOC(=O)c1nc2ccc(C(F)(F)F)cc2nc1Nc1ccc(Cl)c(Cl)c1 | – | – | inactive |
| CN(Cc1nc2c(N)nc(N)nc2[nH]c1=O)c1ccc(C(=O)NC(CCC(=O)O)C(=O)O)cc1 (stereo unspecified) | < 3.70 | 4.97 and 5.09 | – |
| N=c1n(CC(=O)NC23CC4CC(CC(C4)C2)C3)c2ccccc2n1CC(=O)NC12CC3CC(CC(C3)C1)C2 | < 3.70 | 5.43 | – |
| CN(C)c1ccc(/C=N/Nc2nc3ccccc3c(=O)n2-c2ccccc2)cc1 | < 4.00 | < 4.00 | – |
| Nc1nc2ccccc2nc1N | < 3.70 | < 3.70 | – |
| CCOC1CCN(C(=O)c2ccccc2)O1 (stereo unspecified) | < 3.70 | < 3.70 | – |
| CC(=O)c1ccc(-c2oc(-c3ccccc3)cc2-c2ccc3c(c2)OCO3)s1 | < 3.70 | 4.64 | – |
| CC(=O)OC1C[C@H]2C(OC(=O)c3ccccc3)C3C4(OC(C)=O)COC4C[C@H](OC(C)=O)[C@@]3(C)C(OC(C)=O)[C@H](OC(C)=O)C(=C1C)C2(C)C (stereo partly specified) | < 4.45 | < 4.45 | – |
| COc1ccc2c(c1)C/C(=C\c1cccc3ccccc13)C2=O | < 3.70 | 4.29 | – |
| CN(C)C(=O)OCOP(=O)(OCOC(=O)N(C)C)OCC1CCC(n2ccc(=O)[nH]c2=O)O1 (stereo unspecified) | < 3.70 | 4.03 | – |
| C[N+](C)(CCCn1ccnc1[N+](=O)[O-])CCCn1ccnc1[N+](=O)[O-] | < 3.70 | < 3.70 | – |
| CC(C)OP(=O)(OC(C)C)C([CH2][Sn]([CH3])([CH3])[Cl])P(=O)(c1ccccc1)c1ccccc1 (stereo unspecified) | < 3.70 | 5.54 | – |
| O=C(Cn1c(C(=O)c2ccccc2)nc2ccccc21)c1ccccc1 | < 3.70 | 5.13 | – |
| O=C1OCCN(CCO)C12CCCC2 | < 3.12 | < 3.12 | – |
| CCOC(=O)NCC(=O)NCC(=O)NCC(N)=O | < 3.70 | < 3.70 | – |
| CC1C2=C(CCCC2=O)N(c2ccc(Cl)cc2)C2=C1C(=O)CCC2 | < 4.00 | < 4.00 | – |

| SMILES | pEC50 | pIC50 | outcome |
| --- | --- | --- | --- |
| COC[C@@H](N=Cc1ccc(OC)cc1)C(C)C | < 3.70 | < 3.70 | – |
| CCC(c1ccc(OC(C)=O)c(CC(Br)CBr)c1)C(CC)c1ccc(OC(C)=O)c(CC(Br)CBr)c1 (stereo unspecified) | < 4.00 | 4.79 | – |
| Cc1cc(=O)oc2c1c(C)nn2-c1cccc(Cl)c1 | < 4.02 | 4.05 | – |
| COc1cccc(C2C(C(=O)O)=C(CO)Oc3cc4c(cc32)OCO4)c1OC (stereo unspecified) | – | – | inactive |
| CC12CCC(O1)C1C(=O)OC(=O)C12 (stereo unspecified) | < 3.31 | 3.36 | – |
| O=C1CCCC/C1=C/C=C/c1ccccc1 | < 4.19 | < 4.19 | – |
| Cn1c(=O)c2sc3c4sc5c(=O)n(C)c6ccccc6c5c4sc3c2c2ccccc21 | < 3.70 | < 3.70 | – |
| O=C(Cc1ccccc1)NN1C(=O)/C(=C\c2cccc(O)c2)SC1=Nc1ccccc1 | < 3.80 | 3.99 | – |
| O=C1C2=C(CC3C(C2)C3(Br)Br)C(=O)C2=C1CC1C(C2)C1(Br)Br (stereo unspecified) | < 5.03 | < 5.03 | – |
| CCCCCCN(CCCCCC)CC(=O)Nc1ccc(S(=O)(=O)c2ccc(NC(=O)CN(CCCCCC)CCCCCC)cc2)cc1 | < 3.70 | 4.94 | – |
| CC(C)CC(NC(=O)CN)C(=O)NC(C)C(=O)NC(C)C(=O)NC(CO)C(=O)NC(C)C(N)=O (stereo unspecified) (H-GLAASA-NH2; configuration not given here) | – | – | inactive |
| O=c1[nH][nH]c(=O)c2c1nc(SCc1ccc(Br)cc1)n2Cc1ccccc1 | < 3.67 | < 3.67 | – |
| CNCCCC1c2ccccc2C=Cc2ccccc21 | < 3.70 | 4.43 | – |
| CC(CNC(=O)c1ccccc1)(CNC(=O)c1ccccc1)[N+](=O)[O-] | – | – | inactive |
| COc1cccc(/C=C(\NC(C)=O)c2nc3ccc(Cl)cc3[nH]2)c1 | – | – | inactive |
| Cc1cn(C(Cc2ccccc2)OCCN2C(=O)c3ccccc3C2=O)c(=O)[nH]c1=O (stereo unspecified) | < 3.70 | < 3.70 | – |
| CCCCCCCCCCCCCCCCCC1=Nc2ccccc2NC(=O)C1 | < 4.00 | < 4.00 | – |
| C[C@@]1(CO)OC(=O)N2CCC[C@H]21 | < 2.84 | < 2.84 | – |
| C/C(=C\CNc1nc(Cl)nc2nc[nH]c12)CO | < 3.70 | 3.83 | – |
| N#Cc1cnn2ccn(C3OC(COC(=O)c4ccccc4)C(OC(=O)c4ccccc4)C3OC(=O)c3ccccc3)c12 (stereo unspecified) | < 3.70 | < 3.70 | – |

Reference: PubChem BioAssay AID179 (DTP/NCI, 2004)
